What was measured:
Experiment in all cases: Kinase profiling in a biochemical assay panel (mobility shift assays and ELISA), %-inhibition at 1 μM; selectivity entropy
[1] = biological target: panel of more than 300 wild-type and mutant kinases (313 kinase panel) (Homo sapiens, UniProt P05129)
[2] = biological target: panel of more than 300 wild-type and mutant kinases (313 kinase panel) (Homo sapiens, UniProt Q13164)
[3] = biological target: panel of more than 300 wild-type and mutant kinases (313 kinase panel) (Homo sapiens, UniProt P51812)
[4] = biological target: panel of more than 300 wild-type and mutant kinases (313 kinase panel) (Homo sapiens, UniProt Q16512)
[5] = biological target: T1, panel of more than 300 wild-type and mutant kinases (313 kinase panel) (Homo sapiens, UniProt Q9UQB9)
T1 sequence (Q9UQB9 1-309): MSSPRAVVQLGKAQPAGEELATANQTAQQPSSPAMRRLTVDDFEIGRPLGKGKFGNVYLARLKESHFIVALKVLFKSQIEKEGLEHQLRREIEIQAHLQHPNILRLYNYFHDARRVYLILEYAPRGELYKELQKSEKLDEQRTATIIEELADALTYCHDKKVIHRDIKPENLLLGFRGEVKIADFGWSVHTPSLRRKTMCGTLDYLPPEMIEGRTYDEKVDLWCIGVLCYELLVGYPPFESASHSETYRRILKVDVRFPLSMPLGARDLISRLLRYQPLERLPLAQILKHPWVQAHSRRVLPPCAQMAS

[6] = biological target: panel of more than 300 wild-type and mutant kinases (313 kinase panel) (Homo sapiens, UniProt Q13557)
Chain of panel of more than 300 wild-type and mutant kinases (313 kinase panel) (Homo sapiens, UniProt Q13557) (Q13557 whole entry, change not shown): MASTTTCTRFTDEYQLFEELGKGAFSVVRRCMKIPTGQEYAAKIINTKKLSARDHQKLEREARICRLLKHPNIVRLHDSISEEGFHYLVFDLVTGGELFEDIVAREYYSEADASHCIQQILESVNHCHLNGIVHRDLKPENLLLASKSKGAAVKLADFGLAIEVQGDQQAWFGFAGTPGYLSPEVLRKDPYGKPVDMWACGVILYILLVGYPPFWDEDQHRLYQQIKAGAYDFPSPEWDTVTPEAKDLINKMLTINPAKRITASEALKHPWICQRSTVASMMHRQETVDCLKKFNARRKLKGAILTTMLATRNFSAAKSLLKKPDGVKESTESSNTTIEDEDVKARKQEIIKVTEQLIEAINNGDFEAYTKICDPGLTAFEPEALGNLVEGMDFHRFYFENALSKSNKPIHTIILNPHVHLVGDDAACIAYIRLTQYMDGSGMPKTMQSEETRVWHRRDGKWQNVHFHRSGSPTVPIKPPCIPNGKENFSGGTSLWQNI

[7] = biological target: panel of more than 300 wild-type and mutant kinases (313 kinase panel) (Homo sapiens, UniProt Q14012)
[8] = biological target: panel of more than 300 wild-type and mutant kinases (313 kinase panel) (Homo sapiens, UniProt P31749)
Chain of panel of more than 300 wild-type and mutant kinases (313 kinase panel) (Homo sapiens, UniProt P31749) (P31749 whole entry, change not shown): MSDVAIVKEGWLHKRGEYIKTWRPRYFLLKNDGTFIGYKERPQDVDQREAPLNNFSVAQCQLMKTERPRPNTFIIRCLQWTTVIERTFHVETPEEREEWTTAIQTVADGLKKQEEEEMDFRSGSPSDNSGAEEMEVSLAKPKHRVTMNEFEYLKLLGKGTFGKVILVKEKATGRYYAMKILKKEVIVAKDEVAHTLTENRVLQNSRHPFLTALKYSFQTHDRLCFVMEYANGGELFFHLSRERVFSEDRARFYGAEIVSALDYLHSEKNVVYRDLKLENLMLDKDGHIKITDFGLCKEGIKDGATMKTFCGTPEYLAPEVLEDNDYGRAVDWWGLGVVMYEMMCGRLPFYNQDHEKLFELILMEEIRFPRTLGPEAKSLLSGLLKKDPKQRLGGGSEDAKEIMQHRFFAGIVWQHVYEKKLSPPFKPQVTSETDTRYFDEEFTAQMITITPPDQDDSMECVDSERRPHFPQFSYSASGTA

[9] = biological target: panel of more than 300 wild-type and mutant kinases (313 kinase panel) (Homo sapiens, UniProt Q9Y6M4)
Chain of panel of more than 300 wild-type and mutant kinases (313 kinase panel) (Homo sapiens, UniProt Q9Y6M4) (Q9Y6M4 whole entry, change not shown): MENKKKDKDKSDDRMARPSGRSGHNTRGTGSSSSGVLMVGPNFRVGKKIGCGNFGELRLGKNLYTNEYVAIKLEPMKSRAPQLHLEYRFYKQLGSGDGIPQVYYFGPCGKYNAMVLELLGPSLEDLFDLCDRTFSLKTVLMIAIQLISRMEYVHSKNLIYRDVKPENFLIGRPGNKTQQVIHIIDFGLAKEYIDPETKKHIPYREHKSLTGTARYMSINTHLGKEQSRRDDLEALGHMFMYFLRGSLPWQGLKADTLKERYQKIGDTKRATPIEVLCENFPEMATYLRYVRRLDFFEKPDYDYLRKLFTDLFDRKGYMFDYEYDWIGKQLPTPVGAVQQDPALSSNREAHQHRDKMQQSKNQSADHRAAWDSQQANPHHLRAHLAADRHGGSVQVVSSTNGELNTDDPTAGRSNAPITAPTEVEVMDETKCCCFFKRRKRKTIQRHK

[10] = biological target: panel of more than 300 wild-type and mutant kinases (313 kinase panel) (Homo sapiens, UniProt Q13131)
Chain of panel of more than 300 wild-type and mutant kinases (313 kinase panel) (Homo sapiens, UniProt Q13131) (Q13131 whole entry, change not shown): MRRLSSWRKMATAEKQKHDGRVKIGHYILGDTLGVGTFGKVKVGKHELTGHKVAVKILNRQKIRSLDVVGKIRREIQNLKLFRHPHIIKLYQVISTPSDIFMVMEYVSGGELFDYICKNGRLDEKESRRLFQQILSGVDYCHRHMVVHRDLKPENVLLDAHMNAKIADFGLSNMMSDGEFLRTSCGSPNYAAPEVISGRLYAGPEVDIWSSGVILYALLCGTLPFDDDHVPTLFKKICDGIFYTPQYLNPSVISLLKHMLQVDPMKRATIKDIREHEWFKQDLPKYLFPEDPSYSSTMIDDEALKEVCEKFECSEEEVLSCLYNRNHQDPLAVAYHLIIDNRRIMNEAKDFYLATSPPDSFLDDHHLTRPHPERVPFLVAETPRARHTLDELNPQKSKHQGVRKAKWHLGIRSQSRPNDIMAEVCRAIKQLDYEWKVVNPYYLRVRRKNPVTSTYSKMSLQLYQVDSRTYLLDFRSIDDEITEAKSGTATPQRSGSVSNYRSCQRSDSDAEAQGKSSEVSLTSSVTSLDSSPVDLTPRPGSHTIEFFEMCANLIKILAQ

[11] = biological target: panel of more than 300 wild-type and mutant kinases (313 kinase panel) (Homo sapiens, UniProt P11362)
Chain of panel of more than 300 wild-type and mutant kinases (313 kinase panel) (Homo sapiens, UniProt P11362) (P11362 22-822, change not shown): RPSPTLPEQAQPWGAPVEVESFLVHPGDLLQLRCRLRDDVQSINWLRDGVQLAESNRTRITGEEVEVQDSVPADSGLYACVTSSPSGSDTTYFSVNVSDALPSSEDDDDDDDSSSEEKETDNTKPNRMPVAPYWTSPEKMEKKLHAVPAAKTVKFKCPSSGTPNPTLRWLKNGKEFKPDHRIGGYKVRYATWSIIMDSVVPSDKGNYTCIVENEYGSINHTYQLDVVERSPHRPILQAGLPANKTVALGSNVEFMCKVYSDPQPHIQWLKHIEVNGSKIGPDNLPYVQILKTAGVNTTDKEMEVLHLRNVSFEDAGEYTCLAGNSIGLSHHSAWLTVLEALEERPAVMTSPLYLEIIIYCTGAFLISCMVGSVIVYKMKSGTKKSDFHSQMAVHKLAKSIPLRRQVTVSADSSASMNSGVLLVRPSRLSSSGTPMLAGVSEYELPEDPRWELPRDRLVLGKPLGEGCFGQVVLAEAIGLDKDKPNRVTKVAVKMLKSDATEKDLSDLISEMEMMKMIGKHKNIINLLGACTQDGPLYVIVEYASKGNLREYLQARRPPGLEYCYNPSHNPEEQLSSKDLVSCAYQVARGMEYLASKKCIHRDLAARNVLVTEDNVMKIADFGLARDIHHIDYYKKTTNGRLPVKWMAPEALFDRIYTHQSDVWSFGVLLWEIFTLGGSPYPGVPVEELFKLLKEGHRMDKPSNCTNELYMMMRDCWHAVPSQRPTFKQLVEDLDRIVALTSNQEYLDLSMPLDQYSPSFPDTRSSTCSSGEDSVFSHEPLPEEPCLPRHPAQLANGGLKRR

[12] = biological target: panel of more than 300 wild-type and mutant kinases (313 kinase panel) (Homo sapiens, UniProt P41279)
Chain of panel of more than 300 wild-type and mutant kinases (313 kinase panel) (Homo sapiens, UniProt P41279) (P41279 whole entry, change not shown): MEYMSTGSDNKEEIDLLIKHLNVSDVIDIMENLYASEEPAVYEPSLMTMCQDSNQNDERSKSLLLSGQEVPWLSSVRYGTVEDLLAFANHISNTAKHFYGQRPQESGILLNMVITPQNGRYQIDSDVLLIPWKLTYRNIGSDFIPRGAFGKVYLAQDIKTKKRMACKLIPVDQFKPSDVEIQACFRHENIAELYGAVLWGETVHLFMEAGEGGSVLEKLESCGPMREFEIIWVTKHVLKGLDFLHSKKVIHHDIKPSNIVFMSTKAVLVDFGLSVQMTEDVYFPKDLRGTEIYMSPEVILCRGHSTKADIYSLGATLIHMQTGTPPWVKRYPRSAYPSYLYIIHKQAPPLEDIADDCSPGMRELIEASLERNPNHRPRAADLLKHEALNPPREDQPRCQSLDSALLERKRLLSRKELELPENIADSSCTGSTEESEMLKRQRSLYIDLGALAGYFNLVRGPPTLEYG

[13] = biological target: panel of more than 300 wild-type and mutant kinases (313 kinase panel) (Homo sapiens, UniProt P57059)
[14] = biological target: panel of more than 300 wild-type and mutant kinases (313 kinase panel) (Homo sapiens, UniProt P12931)
[15] = biological target: panel of more than 300 wild-type and mutant kinases (313 kinase panel) (Homo sapiens, UniProt Q9H0K1)
Chain of panel of more than 300 wild-type and mutant kinases (313 kinase panel) (Homo sapiens, UniProt Q9H0K1) (Q9H0K1 whole entry, change not shown): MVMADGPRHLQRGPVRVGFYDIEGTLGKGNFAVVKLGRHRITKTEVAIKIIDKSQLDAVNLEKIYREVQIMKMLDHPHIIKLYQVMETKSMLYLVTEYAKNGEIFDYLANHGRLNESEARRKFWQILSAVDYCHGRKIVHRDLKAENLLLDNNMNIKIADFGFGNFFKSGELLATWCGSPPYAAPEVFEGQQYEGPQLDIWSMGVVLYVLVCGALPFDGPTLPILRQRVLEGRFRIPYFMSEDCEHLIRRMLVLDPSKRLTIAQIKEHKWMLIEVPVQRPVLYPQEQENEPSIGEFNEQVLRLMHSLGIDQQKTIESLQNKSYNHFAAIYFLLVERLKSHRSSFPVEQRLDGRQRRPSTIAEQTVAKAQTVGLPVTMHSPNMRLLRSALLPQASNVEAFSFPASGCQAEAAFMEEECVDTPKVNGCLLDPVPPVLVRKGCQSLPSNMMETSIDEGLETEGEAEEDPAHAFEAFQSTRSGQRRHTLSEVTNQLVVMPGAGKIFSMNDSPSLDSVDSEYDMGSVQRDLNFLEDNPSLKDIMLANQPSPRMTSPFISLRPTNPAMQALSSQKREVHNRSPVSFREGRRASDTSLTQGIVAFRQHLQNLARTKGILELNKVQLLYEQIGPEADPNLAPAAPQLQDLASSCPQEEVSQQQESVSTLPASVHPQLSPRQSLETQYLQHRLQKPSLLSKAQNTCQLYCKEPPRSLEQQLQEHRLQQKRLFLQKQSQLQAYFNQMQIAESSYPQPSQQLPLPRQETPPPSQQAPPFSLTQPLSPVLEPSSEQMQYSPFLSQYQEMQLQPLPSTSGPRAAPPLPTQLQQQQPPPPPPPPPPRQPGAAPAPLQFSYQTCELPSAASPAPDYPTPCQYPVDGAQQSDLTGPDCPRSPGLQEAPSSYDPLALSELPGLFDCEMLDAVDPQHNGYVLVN

[16] = kinase AMPKα1/β1/γ1, 1 μM compound

SMILES	%-inhibition of PKCγ ([1]; kinase PKCγ, 1 μM) [%]	%-inhibition of Erk5 ([2]; kinase Erk5, compound at 1 μM) [%]	%-inhibition of RSK2 ([3]; kinase RSK2, 1 μM) [%]	%-inhibition of PKN1 ([4]; kinase PKN1, 1 μM) [%]	%-inhibition, AurC ([5]; kinase AurC, 1 μM compound) [%]	%-inhibition, CaMK2δ ([6]; kinase CaMK2δ, 1 μM compound) [%]	%-inhibition, CaMK1α ([7]; kinase CaMK1α, 1 μM compound) [%]	%-inhibition, AKT1 ([8]; kinase AKT1, 1 μM compound) [%]	%-inhibition, CK1γ3 ([9]; kinase CK1γ3, 1 μM compound) [%]	%-inhibition, AMPKα1/β1/γ1 [10, 16] [%]	%-inhibition of FGFR1 ([11]; kinase FGFR1, compound at 1 μM) [%]	%-inhibition of COT ([12]; kinase COT, compound at 1 μM) [%]	%-inhibition of SIK ([13]; kinase SIK, 1 μM) [%]	%-inhibition of SRC ([14]; kinase SRC, 1 μM) [%]	%-inhibition of QIK ([15]; kinase QIK, 1 μM) [%]	%-inhibition, CK1γ3 ([9]; 1 µM) [%]	other results
CO[C@H]1C[C@@H]2CC[C@@H](C)[C@@](O)(O2)C(=O)C(=O)N2CCCC[C@H]2C(=O)O[C@H]([C@H](C)C[C@@H]2CC[C@@H](OC(=O)C(C)(CO)CO)[C@H](OC)C2)CC(=O)[C@H](C)/C=C(\C)[C@@H](O)[C@@H](OC)C(=O)[C@H](C)C[C@H](C)/C=C/C=C/C=C/1C [temsirolimus]	-11	-5	-2.74	0.71	0.194	-4	-6.61	-4	-1	-4.34	-6.47	8	-5.28	0.915	-3		
CO[C@H]1C[C@@H]2CC[C@@H](C)[C@@](O)(O2)C(=O)C(=O)N2CCCC[C@H]2C(=O)O[C@H]([C@H](C)C[C@@H]2CC[C@@H](OCCO)[C@H](OC)C2)CC(=O)[C@H](C)/C=C(\C)[C@@H](O)[C@@H](OC)C(=O)[C@H](C)C[C@H](C)/C=C/C=C/C=C/1C [everolimus]	-6.56	-2.5	-1.35	2.6	-6.41	-2.12	-8	-7	-13	-6	-8	-3	-5.51	2.64	-3		
COc1cc2nccc(Oc3ccc(NC(=O)C4(C(=O)Nc5ccc(F)cc5)CC4)cc3)c2cc1OC [cabozantinib]	-4	-2	-3.61	2.13	86	0.942	-0.897	-4.52	5	-1	16	18	6	92	0.408		
CCCS(=O)(=O)Nc1ccc(F)c(C(=O)c2c[nH]c3ncc(-c4ccc(Cl)cc4)cc23)c1F [vemurafenib]	-4.39	0.709	-2.31	-0.378	13	-0.235	-3.18	-4.52	2.14	-1.59	21	4.34	24	52	6		
CS(=O)(=O)CCNCc1ccc(-c2ccc3ncnc(Nc4ccc(OCc5cccc(F)c5)c(Cl)c4)c3c2)o1 [lapatinib]	-0.202		-1	0		-33	8	2.63		-5	-0.636	-0.221	-7	6	-4.72	-0.863	%-inhibition of Erk5 ([2]; 1 µM): -0.8%; %-inhibition, AurC ([5]; 1 µM): 3.4%
C#Cc1cccc(Nc2ncnc3cc(OCCOC)c(OCCOC)cc23)c1 [erlotinib]																-0.719	%-inhibition of PKCγ ([1]; 1 µM): 8%; %-inhibition of Erk5 ([2]; 1 µM): 21%; %-inhibition of RSK2 ([3]; 1 µM): 6.4%; %-inhibition of PKN1 ([4]; 1 µM): 2.76%; %-inhibition, AurC ([5]; 1 µM): 24%; %-inhibition, CaMK2δ ([6]; 1 µM): -11%; %-inhibition, CaMK1α ([7]; 1 µM): 2.51%; %-inhibition, AKT1 ([8]; 1 µM): 12%; %-inhibition, AMPKα1/β1/γ1 ([10]; 1 µM): 2%; %-inhibition of FGFR1 ([11]; 1 µM): 24%; %-inhibition of COT ([12]; 1 µM): -0.486%; %-inhibition of SIK ([13]; 1 µM): 8%; %-inhibition of SRC ([14]; 1 µM): 46%; %-inhibition of QIK ([15]; 1 µM): 18%
Cc1cn(-c2cc(NC(=O)c3ccc(C)c(Nc4nccc(-c5cccnc5)n4)c3)cc(C(F)(F)F)c2)cn1 [nilotinib]	-1.31	-3.64	13	13	5		-15	11			-29	2.3	-25	23	-36	-10	%-inhibition, CaMK2δ ([6]; 1 µM): 1.2%; %-inhibition, AMPKα1/β1/γ1 ([10]; 1 µM): -12%
